Laboratory results taken from patent US12281057B2 (VERTEX PHARMACEUTICALS INCORPORATED, priority 2017, dated 2025).
Like-named read-outs stand apart in the source and are kept apart here.

Biological target: truncated form of human NaV 1.8 with full channel activity (Homo sapiens, UniProt Q9Y5Y9)
Test: E-VIPR Assay Method A for detecting and measuring Nav inhibition (HEK cells, membrane potential FRET dyes, electrical stimulation)
Format: cell-based
Details: HEK cells expressing human NaV 1.8, HS (human serum) in compound loading buffer, 11 point dose response, top dose 3 μM
In short: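 HEK cells expressing truncated human NaV1.8, loaded with CC2-DMPE/DiSBAC6(3) FRET dyes, incubated 30 min at room temp with compound (0.625% DMSO), then electrically stimulated (1.25 A biphasic, 10 Hz, 10 s). Inhibition from 460/580 nm ratio Rf/Ri, normalised to positive and DMSO controls.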

[1] = Table 20A, read-out: Nav 1.8 MedChem Optical Assay EVIPR Assay Method A HS IC50
[2] = Table 20, read-out: Nav 1.8 MedChem Optical Assay EVIPR Assay Method A HS IC50

Sequence of truncated form of human NaV 1.8 with full channel activity (Q9Y5Y9 126-1722 limits assumed): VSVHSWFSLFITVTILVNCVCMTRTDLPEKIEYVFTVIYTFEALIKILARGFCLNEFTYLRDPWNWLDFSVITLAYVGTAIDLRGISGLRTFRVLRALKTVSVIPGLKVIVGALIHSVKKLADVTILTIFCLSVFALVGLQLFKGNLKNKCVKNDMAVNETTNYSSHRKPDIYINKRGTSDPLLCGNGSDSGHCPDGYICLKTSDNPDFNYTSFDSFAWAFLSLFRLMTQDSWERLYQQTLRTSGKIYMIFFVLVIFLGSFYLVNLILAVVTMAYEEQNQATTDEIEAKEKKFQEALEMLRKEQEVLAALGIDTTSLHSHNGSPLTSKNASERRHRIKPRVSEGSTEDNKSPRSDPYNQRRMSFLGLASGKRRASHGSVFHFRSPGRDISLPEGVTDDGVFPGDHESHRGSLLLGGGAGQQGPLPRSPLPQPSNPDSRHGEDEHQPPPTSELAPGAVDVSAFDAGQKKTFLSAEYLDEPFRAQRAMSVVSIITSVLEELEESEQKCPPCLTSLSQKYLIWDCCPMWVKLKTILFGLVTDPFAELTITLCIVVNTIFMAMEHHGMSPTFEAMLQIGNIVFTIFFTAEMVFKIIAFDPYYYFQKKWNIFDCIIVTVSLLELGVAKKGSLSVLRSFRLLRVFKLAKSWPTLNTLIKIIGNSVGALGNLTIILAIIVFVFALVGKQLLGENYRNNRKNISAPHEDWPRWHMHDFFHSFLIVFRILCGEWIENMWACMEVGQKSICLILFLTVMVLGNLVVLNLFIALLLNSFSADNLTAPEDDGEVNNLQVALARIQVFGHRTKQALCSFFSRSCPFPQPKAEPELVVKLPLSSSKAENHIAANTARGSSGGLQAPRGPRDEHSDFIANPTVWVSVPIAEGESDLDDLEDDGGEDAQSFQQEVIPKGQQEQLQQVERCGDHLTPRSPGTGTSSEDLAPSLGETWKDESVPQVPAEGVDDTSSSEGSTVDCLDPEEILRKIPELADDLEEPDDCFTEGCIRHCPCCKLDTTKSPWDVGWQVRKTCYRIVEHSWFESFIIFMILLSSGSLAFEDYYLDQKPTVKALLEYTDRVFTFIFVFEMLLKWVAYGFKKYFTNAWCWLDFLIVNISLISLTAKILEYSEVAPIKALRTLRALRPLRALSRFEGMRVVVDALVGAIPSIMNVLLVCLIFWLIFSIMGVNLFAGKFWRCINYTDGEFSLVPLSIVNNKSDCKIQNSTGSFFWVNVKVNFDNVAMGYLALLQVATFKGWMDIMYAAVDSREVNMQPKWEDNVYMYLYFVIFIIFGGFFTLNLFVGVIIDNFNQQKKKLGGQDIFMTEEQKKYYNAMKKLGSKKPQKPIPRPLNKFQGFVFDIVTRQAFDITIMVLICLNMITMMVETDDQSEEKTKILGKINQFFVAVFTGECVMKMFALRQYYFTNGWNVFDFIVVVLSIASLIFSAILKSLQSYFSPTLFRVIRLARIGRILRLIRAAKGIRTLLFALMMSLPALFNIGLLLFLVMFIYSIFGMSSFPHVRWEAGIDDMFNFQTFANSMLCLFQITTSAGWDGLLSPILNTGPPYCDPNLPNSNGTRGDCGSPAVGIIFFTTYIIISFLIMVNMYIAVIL

IC50 [1] [µM] | IC50 [2] [µM] | Structure (SMILES)
0.5 |  | NC(=O)c1ccc(NC(=O)c2c(Cl)cc(Cl)cc2Oc2ccc(OC(F)(F)F)cc2)cn1 [Compound 184, 5-[[2,4-Dichloro-6-[4-(trifluoromethoxy)phenoxy]benzoyl]amino]pyridine-2-carboxamide]
 | 0.001 | [2H]C([2H])([2H])Oc1cc(OC(F)(F)F)ccc1Oc1ccc(OC(F)(F)F)c(F)c1C(=O)Nc1ccc(F)c(C(N)=O)c1 [Compound 3, N-(3-carbamoyl-4-fluoro-phenyl)-2-fluoro-6-[2-(trideuteriomethoxy)-4-(trifluoromethoxy)phenoxy]-3-(trifluoromethoxy)benzamide]
0.015 |  | CNC(=O)c1cccc(NC(=O)c2c(Oc3ccc(OC(F)(F)F)cc3OC)ccc(C(F)(F)F)c2F)c1 [Compound 98, 2-fluoro-6-[2-methoxy-4-(trifluoromethoxy)phenoxy]-N-[3-(methylcarbamoyl)phenyl]-3-(trifluoromethyl)benzamide]
0.083 |  | COc1cc(OC(F)(F)F)ccc1Oc1cc(C(F)(F)F)ncc1C(=O)Nc1ccnc(C(N)=O)c1 [Compound 34, N-(2-Carbamoyl-4-pyridyl)-4-[2-methoxy-4-(trifluoromethoxy)phenoxy]-6-(trifluoromethyl)pyridine-3-carboxamide]
0.85 |  | COc1cc(F)ccc1Oc1cc(OC(F)(F)F)ccc1C(=O)Nc1ccnc(C(N)=O)c1 [Compound 148, 4-[[2-(4-Fluoro-2-methoxy-phenoxy)-4-(trifluoromethoxy)benzoyl]amino]pyridine-2-carboxamide]
 | 0.007 | COc1cc(OC(F)(F)F)ccc1Oc1ccc(C(F)(F)F)c(F)c1C(=O)Nc1ccc(C(N)=O)c(F)c1 [Compound 16, N-(4-carbamoyl-3-fluoro-phenyl)-2-fluoro-6-[2-methoxy-4-(trifluoromethoxy)phenoxy]-3-(trifluoromethyl)benzamide]
0.005 |  | COc1cc(OC(F)(F)F)ccc1Oc1cnc(C(F)(F)F)c(OC)c1C(=O)Nc1ccnc(C(N)=O)c1 [Compound 166, N-(2-Carbamoyl-4-pyridyl)-3-methoxy-5-[2-methoxy-4-(trifluoromethoxy)phenoxy]-2-(trifluoromethyl)pyridine-4-carboxamide]
0.04 |  | NC(=O)c1cc(NC(=O)c2c(Oc3ccc(OC(F)(F)F)cc3)ccc(C3CC3)c2F)ccc1F [Compound 71, N-(3-Carbamoyl-4-fluoro-phenyl)-3-cyclopropyl-2-fluoro-6-[4-(trifluoromethoxy)phenoxy]benzamide]
0.021 |  | COc1cc(OC(F)(F)F)ccc1Oc1cnc(C(F)(F)F)cc1C(=O)Nc1ccc(F)c(C(N)=O)c1 [Compound 68, N-(3-Carbamoyl-4-fluoro-phenyl)-5-[2-methoxy-4-(trifluoromethoxy)phenoxy]-2-(trifluoromethyl)pyridine-4-carboxamide]
0.035 |  | COc1cc(OC(F)(F)F)ccc1Oc1ccc(F)c(Cl)c1C(=O)Nc1ccnc(C(N)=O)c1 [Compound 171, 4-[[2-Chloro-3-fluoro-6-[2-methoxy-4-(trifluoromethoxy)phenoxy]benzoyl]amino]pyridine-2-carboxamide]
0.075 |  | NC(=O)c1cc(NC(=O)c2c(Cl)cc(Cl)cc2Oc2ccc(OC(F)(F)F)cc2)ccn1 [Compound 180, 4-[[2,4-Dichloro-6-[4-(trifluoromethoxy)phenoxy]benzoyl]amino]pyridine-2-carboxamide]
0.092 |  | COc1cc(OC(F)(F)F)ccc1Oc1ccc(C(F)(F)F)c(F)c1C(=O)Nc1ccc(C(N)=O)cc1F [Compound 82, N-(4-carbamoyl-2-fluoro-phenyl)-2-fluoro-6-[2-methoxy-4-(trifluoromethoxy)phenoxy]-3-(trifluoromethyl)benzamide]
0.026 |  | COc1cc(OC(F)(F)F)ccc1Oc1cc(C(F)(F)F)c(F)cc1C(=O)Nc1ccnc(C(N)=O)c1 [Compound 75, 4-[[5-Fluoro-2-[2-methoxy-4-(trifluoromethoxy)phenoxy]-4-(trifluoromethyl)benzoyl]amino]pyridine-2-carboxamide]
0.099 |  | [2H]C([2H])([2H])Oc1cc(OC(F)(F)F)ccc1Oc1cc(Cl)cc(Cl)c1C(=O)Nc1ccc(C(N)=O)nc1 [Compound 183, 5-[[2,4-Dichloro-6-[2-(trideuteriomethoxy)-4-(trifluoromethoxy)phenoxy]benzoyl]amino]pyridine-2-carboxamide]
 | 0.01 | NC(=O)c1cc(NC(=O)c2c(Oc3ccc(OC(F)(F)F)cc3F)ccc(C(F)(F)F)c2F)ccc1F [Compound 21, N-(3-carbamoyl-4-fluoro-phenyl)-2-fluoro-6-[2-fluoro-4-(trifluoromethoxy)phenoxy]-3-(trifluoromethyl)benzamide]
0.7 |  | COc1ccc(Oc2cccc(C(F)(F)F)c2C(=O)Nc2ccc(F)c(C(N)=O)c2)c(OC)c1 [Compound 38, N-(3-Carbamoyl-4-fluoro-phenyl)-2-(2,4-dimethoxyphenoxy)-6-(trifluoromethyl)benzamide]

IC50 [1] [µM] | IC50 [2] [µM] | Structure (SMILES)
0.065 |  | COc1cc(OC(F)(F)F)ccc1Oc1cc(C2C[C@@H]2C)ncc1C(=O)Nc1ccnc(C(N)=O)c1 (mixture of isomers) [Compound 109, Racemic trans-4-(4-(2-Methoxy-4-(trifluoromethoxy)phenoxy)-6-(2-methylcyclopropyl)nicotinamido)picolinamide]
 | 0.007 | NC(=O)c1cc(NC(=O)c2c(Oc3ccc(OC(F)(F)F)cc3)ccc(C(F)(F)F)c2F)ccc1F [Compound 15, N-(3-carbamoyl-4-fluoro-phenyl)-2-fluoro-6-[4-(trifluoromethoxy)phenoxy]-3-(trifluoromethyl)benzamide]
0.017 |  | COc1cc(OC(F)(F)F)ccc1Oc1ccc(C(F)(F)F)c(F)c1C(=O)Nc1cc(C(N)=O)ncc1Cl [Compound 152, 5-Chloro-4-[[2-fluoro-6-[2-methoxy-4-(trifluoromethoxy)phenoxy]-3-(trifluoromethyl)benzoyl]amino]pyridine-2-carboxamide]
0.011 |  | COc1cc(OC(F)(F)F)ccc1Oc1cc(C(F)(F)F)cc(F)c1C(=O)Nc1ccnc(C(N)=O)c1 [Compound 163, 4-[[2-Fluoro-6-[2-methoxy-4-(trifluoromethoxy)phenoxy]-4-(trifluoromethyl)benzoyl]amino]pyridine-2-carboxamide]
0.006 |  | COc1cc(OC(F)(F)F)ccc1Oc1ccc(Cl)c(F)c1C(=O)Nc1cc(C(N)=O)ncc1C [Compound 189, 4-[[3-Chloro-2-fluoro-6-[2-methoxy-4-(trifluoromethoxy)phenoxy]benzoyl]amino]-5-methyl-pyridine-2-carboxamide]
0.042 |  | COc1nc(Cl)ccc1Oc1ccc(C(F)(F)F)c(F)c1C(=O)Nc1ccc(C(N)=O)c(F)c1 [Compound 67, N-(4-carbamoyl-3-fluoro-phenyl)-6-[(6-chloro-2-methoxy-3-pyridyl)oxy]-2-fluoro-3-(trifluoromethyl)benzamide]
 | 0.006 | NC(=O)c1cc(NC(=O)c2c(Oc3ccc(OC(F)(F)F)c(Cl)c3)ccc(C(F)(F)F)c2F)ccc1F [Compound 14, N-(3-carbamoyl-4-fluoro-phenyl)-6-[3-chloro-4-(trifluoromethoxy)phenoxy]-2-fluoro-3-(trifluoromethyl)benzamide]
0.055 |  | COc1cc(OC(F)(F)F)ccc1Oc1cc(C(F)(F)F)cnc1C(=O)Nc1ccc(F)c(C(N)=O)c1 [Compound 32, N-(3-Carbamoyl-4-fluoro-phenyl)-3-[2-methoxy-4-(trifluoromethoxy)phenoxy]-5-(trifluoromethyl)pyridine-2-carboxamide]
0.016 |  | COc1cc(OC(F)(F)F)ccc1Oc1ccc(C(F)(F)F)c(F)c1C(=O)Nc1ccc(C(N)=O)nc1 [Compound 193, 5-[[2-fluoro-6-[2-methoxy-4-(trifluoromethoxy)phenoxy]-3-(trifluoromethyl)benzoyl]amino]pyridine-2-carboxamide]
 | 0.018 | [2H]C([2H])([2H])Oc1cc(OC(F)(F)F)ccc1Oc1ccc(C(F)(F)F)c(F)c1C(=O)Nc1ccc(C(N)=O)nc1 [Compound 24, 5-[[2-fluoro-6-[2-(trideuteriomethoxy)-4-(trifluoromethoxy)phenoxy]-3-(trifluoromethyl)benzoyl]amino]pyridine-2-carboxamide]
0.079 |  | NC(=O)c1ccc(NC(=O)c2c(Oc3ccc(OC(F)(F)F)cc3)ccc(C(F)(F)F)c2F)cc1F [Compound 65, N-(4-Carbamoyl-3-fluoro-phenyl)-2-fluoro-6-[4-(trifluoromethoxy)phenoxy]-3-(trifluoromethyl)benzamide]
0.14 |  | Cn1nccc1-c1cc(F)ccc1Oc1ccc(C(F)(F)F)c(F)c1C(=O)Nc1ccc(F)c(C(N)=O)c1 [Compound 135, N-(3-Carbamoyl-4-fluoro-phenyl)-2-fluoro-6-[4-fluoro-2-(2-methylpyrazol-3-yl)phenoxy]-3-(trifluoromethyl)benzamide]
0.052 |  | [2H]C([2H])([2H])Oc1cc(OC(F)(F)F)ccc1Oc1cc(OC(F)(F)F)cc(F)c1C(=O)Nc1ccc(C(N)=O)nc1 [Compound 173, 5-[[2-Fluoro-6-[2-(trideuteriomethoxy)-4-(trifluoromethoxy)phenoxy]-4-(trifluoromethoxy)benzoyl]amino]pyridine-2-carboxamide]
2.1 |  | NC(=O)c1ccc(NC(=O)c2c(Cl)cc(Cl)cc2Oc2ccc(F)cc2)cn1 [Compound 181, 5-[[2,4-Dichloro-6-(4-fluorophenoxy)benzoyl]amino]pyridine-2-carboxamide]
0.007 |  | COc1nc(Cl)ccc1Oc1ccc(C(F)(F)F)c(F)c1C(=O)Nc1ccc(F)c(C(N)=O)c1 [Compound 54, N-(3-Carbamoyl-4-fluoro-phenyl)-6-[(6-chloro-2-methoxy-3-pyridyl)oxy]-2-fluoro-3-(trifluoromethyl)benzamide]
